Laboratory results: ChEMBL document CHEMBL4196074, “Metallomics for Alzheimer's disease treatment: Use of new generation of chelators combining metal-cation binding and transport properties” (Eur J Med Chem, 2018)
The source made the active and inactive calls. Unless noted, the rule behind the calls is not given here.

Columns and labels:
SH-SY5Y [1] = test: Antiproliferative activity against human SH-SY5Y cells at 1 uM after 24 to 72 hrs by WST1 assay; type: cell-based
SH-SY5Y [2] = test: Inhibition of Zn2+-mediated amyloid beta (1 to 42 residues) production in human SH-SY5Y cells expressing APPswe mutant at 1 uM after 72 hrs by ELISA based spectrophotometric analysis; type: cell-based
SH-SY5Y [3] = test: Inhibition of Zn2+-mediated ROS generation in human SH-SY5Y cells expressing APPswe mutant at 1 uM after 72 hrs by DCF-DA dye-based fluorescence spectroscopic analysis; type: cell-based
SH-SY5Y [4] = test: Inhibition of Zn2+-induced caspase-3 activity in human SH-SY5Y cells expressing APPswe mutant at 1 uM after 72 hrs by AcDEVD substrate-based spectrophotometric analysis; type: cell-based
SH-SY5Y [5] = test: Inhibition of Zn2+-induced toxicity in human SH-SY5Y cells expressing APPswe mutant assessed as increase in cell viability at 1 uM after 72 hrs by WST1 assay; type: cell-based
[6] = Effective permeability of the compound at 10^-5 mol/L after 5 hrs by UV-based PAMPA; type: ADME; conditions: read-out: Peff
[7] = target: Acetylcholinesterase (Homo sapiens) (UniProt P22303); test: Inhibition of acetylcholinesterase (unknown origin) at 1 uM using acetylthiocholine chloride as substrate measured for 5 to 40 mins
SH-SY5Y [8] = test: Neuroprotective activity against amyloid beta (1 to 42 residues) induced cell death in human SH-SY5Y cells expressing APPswe mutant at 1 uM after 48 hrs by WST1 assay; type: functional, cell-based
[9] = Metal chelating activity assessed as compound-Zn2+ complex formation by UV-vis spectrophotometric analysis
[10] = Metal chelating activity assessed as compound-Fe3+ complex formation by UV-vis spectrophotometric analysis
[11] = Metal chelating activity assessed as compound-Cu2+ complex formation by UV-vis spectrophotometric analysis
SH-SY5Y [12] = test: Inhibition of Cu2+-mediated amyloid beta (1 to 42 residues) production in human SH-SY5Y cells expressing APPswe mutant at 1 uM after 72 hrs by ELISA based spectrophotometric analysis; type: cell-based
SH-SY5Y [13] = test: Inhibition of Fe3+-mediated amyloid beta (1 to 42 residues) production in human SH-SY5Y cells expressing APPswe mutant at 1 uM after 72 hrs by ELISA based spectrophotometric analysis; type: cell-based
SH-SY5Y [14] = test: Inhibition of Cu2+-mediated ROS generation in human SH-SY5Y cells expressing APPswe mutant at 1 uM after 72 hrs by DCF-DA dye-based fluorescence spectroscopic analysis; type: cell-based
SH-SY5Y [15] = test: Inhibition of Fe3+-mediated ROS generation in human SH-SY5Y cells expressing APPswe mutant at 1 uM after 72 hrs by DCF-DA dye-based fluorescence spectroscopic analysis; type: cell-based
SH-SY5Y [16] = test: Inhibition of Cu2+-induced caspase-3 activity in human SH-SY5Y cells expressing APPswe mutant at 1 uM after 72 hrs by AcDEVD substrate-based spectrophotometric analysis; type: cell-based
SH-SY5Y [17] = test: Inhibition of Fe3+-induced caspase-3 activity in human SH-SY5Y cells expressing APPswe mutant at 1 uM after 72 hrs by AcDEVD substrate-based spectrophotometric analysis; type: cell-based
SH-SY5Y [18] = test: Inhibition of Cu2+-induced toxicity in human SH-SY5Y cells expressing APPswe mutant assessed as increase in cell viability at 1 uM after 72 hrs by WST1 assay; type: cell-based
SH-SY5Y [19] = test: Inhibition of Fe3+-induced toxicity in human SH-SY5Y cells expressing APPswe mutant assessed as increase in cell viability at 1 uM after 72 hrs by WST1 assay; type: cell-based
SH-SY5Y [20] = test: Effect on morphological changes in human SH-SY5Y cells expressing APPswe mutant assessed as decrease in adherent cell number at 1 uM after 72 hrs; type: ADME, cell-based
SH-SY5Y [21] = test: Effect on morphological changes in human SH-SY5Y cells expressing APPswe mutant assessed as alteration of cell shape at 1 uM after 72 hrs; type: ADME, cell-based
[22] = Effective permeability of the compound at pH 7.4 at 200 uM after 4 hrs by PAMPA-BBB assay; type: ADME; conditions: read-out: Peff

Chain of Acetylcholinesterase (Homo sapiens) (P22303 whole entry, the tested form may be a part): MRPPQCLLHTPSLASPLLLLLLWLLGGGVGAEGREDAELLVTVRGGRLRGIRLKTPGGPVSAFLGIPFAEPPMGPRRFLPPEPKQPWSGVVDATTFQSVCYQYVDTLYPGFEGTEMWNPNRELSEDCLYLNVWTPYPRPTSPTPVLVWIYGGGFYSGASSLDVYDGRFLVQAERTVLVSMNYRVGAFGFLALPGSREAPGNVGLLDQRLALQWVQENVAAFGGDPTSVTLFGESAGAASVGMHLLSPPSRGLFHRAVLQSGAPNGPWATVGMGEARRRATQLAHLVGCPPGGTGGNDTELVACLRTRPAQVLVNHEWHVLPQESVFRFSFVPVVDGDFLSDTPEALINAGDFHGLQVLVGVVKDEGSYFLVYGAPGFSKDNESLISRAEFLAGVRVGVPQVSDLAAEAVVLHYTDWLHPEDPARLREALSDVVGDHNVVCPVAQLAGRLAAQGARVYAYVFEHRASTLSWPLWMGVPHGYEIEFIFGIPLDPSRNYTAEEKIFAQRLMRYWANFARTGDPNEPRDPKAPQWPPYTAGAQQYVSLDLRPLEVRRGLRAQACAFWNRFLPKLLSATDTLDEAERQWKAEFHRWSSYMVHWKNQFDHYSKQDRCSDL

SMILES | Activity (SH-SY5Y [1]) | inhibition [7] | Activity (SH-SY5Y [8]) | Activity [9] | Activity [10] | Activity [11] | inhibition (SH-SY5Y [12]) | inhibition (SH-SY5Y [13]) | inhibition (SH-SY5Y [14]) | inhibition (SH-SY5Y [15]) | inhibition (SH-SY5Y [16]) | inhibition (SH-SY5Y [17]) | inhibition (SH-SY5Y [18]) | inhibition (SH-SY5Y [19]) | other results
Cc1ncc(CO)c(/C=N/NC(=O)CC[C@@H](C)[C@H]2CC[C@H]3[C@@H]4[C@H](O)C[C@@H]5C[C@H](O)CC[C@]5(C)[C@H]4C[C@H](O)[C@]23C)c1O | Non-Toxic | inactive | Active | Active | Active | Active | inactive | inactive | Active | Active | Active | Active | Active | Active | inhibition (SH-SY5Y [2]): inactive; inhibition (SH-SY5Y [3]): Active; inhibition (SH-SY5Y [4]): Active; inhibition (SH-SY5Y [5]): Active; Papp at 5 h, 10 µM [6]: 75 nm/s
C[C@H](CCC(=O)N/N=C/c1ccc2ccccc2n1)[C@H]1CC[C@H]2[C@@H]3[C@H](O)C[C@@H]4C[C@H](O)CC[C@]4(C)[C@H]3C[C@H](O)[C@]12C | Non-Toxic | inactive | Active | inactive | Active | Active | inactive | inactive | Active | Active | Active | Active | Active | Active | –
C[C@H](CCC(=O)N/N=C/c1ccc(C(C)(C)C)cc1O)[C@H]1CC[C@H]2[C@@H]3[C@H](O)C[C@@H]4C[C@H](O)CC[C@]4(C)[C@H]3C[C@H](O)[C@]12C | Non-Toxic | inactive | Active | inactive | Active | Active | inactive | inactive | Active | Active | Active | Active | Active | Active | –
C[C@H](CCC(=O)NN=C(c1ccccn1)c1ccccn1)[C@H]1CC[C@H]2[C@@H]3[C@H](O)C[C@@H]4C[C@H](O)CC[C@]4(C)[C@H]3C[C@H](O)[C@]12C | Non-Toxic | inactive | Active | inactive | Active | Active | Active | Active | – | – | Active | Active | Active | Active | –
COc1ccc(Nc2c(NN=C(c3ccccn3)c3ccccn3)c(=O)c2=O)cc1 | Non-Toxic | inactive | inactive | inactive | Active | Active | Active | Active | Active | Active | – | – | – | – | Activity (SH-SY5Y [20]): Toxic; Activity (SH-SY5Y [21]): Toxic
CC(C)NCC(O)COc1cccc2ccccc12 (stereo unspecified) [PROPRANOLOL] | – | – | – | – | – | – | – | – | – | – | – | – | – | – | Papp at 4 h, 200 µM [22]: 103 nm/s
CCN1/C(=C/c2c(NN=C(c3ccccn3)c3ccccn3)c(=O)c2=O)Sc2ccccc21 | Non-Toxic | inactive | inactive | Active | Active | Active | Active | Active | Active | Active | – | – | – | – | inhibition (SH-SY5Y [2]): Active; inhibition (SH-SY5Y [3]): Active; Activity (SH-SY5Y [20]): Toxic; Activity (SH-SY5Y [21]): Toxic
